Reference: the supplement of paper PMC10307832

What was measured:
Assay in all cases: relative viability (nuclei count vs DMSO), 5 days (fraction); higher = more cells survive
Dovitinib + Decitabine = compound: CN1CCN(c2ccc3nc(-c4c(N)c5c(F)cccc5[nH]c4=O)[nH]c3c2)CC1 [Dovitinib] + Nc1ncn([C@H]2C[C@H](O)[C@@H](CO)O2)c(=O)n1 [Decitabine] (partner 2 µM)
In short: (§1)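 Cells from lung cancer lines were seeded into 1536-well plates and, one day later, dosed by pin tool. Treatments were either a single drug or a fixed dose of an anchor drug with five library-drug doses (not always all listed) in √10 steps. After 5 days, nuclei were stained in a one-step fixation (final 0.05% Triton X-100, 1% formaldehyde, 1 ug/ml Hoechst) and counted on 4× images, and relative viability is the treated-to-vehicle nuclei ratio, as the median of duplicate plates.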

Dovitinib + Bortezomib = compound: CN1CCN(c2ccc3nc(-c4c(N)c5c(F)cccc5[nH]c4=O)[nH]c3c2)CC1 [Dovitinib] + CC(C)C[C@H](NC(=O)[C@H](Cc1ccccc1)NC(=O)c1cnccn1)B(O)O [Bortezomib] (partner 0.002 µM)
In short: as §1

Dovitinib + Tozasertib = compound: CN1CCN(c2ccc3nc(-c4c(N)c5c(F)cccc5[nH]c4=O)[nH]c3c2)CC1 [Dovitinib] + Cc1cc(Nc2cc(N3CCN(C)CC3)nc(Sc3ccc(NC(=O)C4CC4)cc3)n2)n[nH]1 [Tozasertib] (partner 0.1 µM)
In short: as §1

Dovitinib + AZD7762 = compound: CN1CCN(c2ccc3nc(-c4c(N)c5c(F)cccc5[nH]c4=O)[nH]c3c2)CC1 [Dovitinib] + NC(=O)Nc1cc(-c2cccc(F)c2)sc1C(=O)N[C@H]1CCCNC1 [AZD7762] (partner 0.2 µM)
In short: as §1

| Cell Line | relative viability (Dovitinib + Decitabine; first compound 0.02 µM) | relative viability (Dovitinib + Decitabine; first compound 0.06325 µM) | relative viability (Dovitinib + Decitabine; first compound 0.2 µM) | relative viability (Dovitinib + Decitabine; first compound 0.6325 µM) | relative viability (Dovitinib + Decitabine; first compound 2 µM) | relative viability (Dovitinib + Bortezomib; first compound 0.02 µM) | relative viability (Dovitinib + Bortezomib; first compound 0.06325 µM) | relative viability (Dovitinib + Bortezomib; first compound 0.2 µM) | relative viability (Dovitinib + Bortezomib; first compound 0.6325 µM) | relative viability (Dovitinib + Bortezomib; first compound 2 µM) | relative viability (Dovitinib + Tozasertib; first compound 0.02 µM) | relative viability (Dovitinib + Tozasertib; first compound 0.06325 µM) | relative viability (Dovitinib + Tozasertib; first compound 0.2 µM) | relative viability (Dovitinib + Tozasertib; first compound 0.6325 µM) | relative viability (Dovitinib + Tozasertib; first compound 2 µM) | relative viability (Dovitinib + AZD7762; first compound 0.02 µM) | relative viability (Dovitinib + AZD7762; first compound 0.06325 µM) | relative viability (Dovitinib + AZD7762; first compound 0.2 µM) | relative viability (Dovitinib + AZD7762; first compound 0.6325 µM) | relative viability (Dovitinib + AZD7762; first compound 2 µM) |
| --- | --- | --- | --- | --- | --- | --- | --- | --- | --- | --- | --- | --- | --- | --- | --- | --- | --- | --- | --- | --- |
| LCLC-97TM1 | 0.188 | 0.118 | 0.203 | 0.217 | 0.206 | 0.754 | 0.783 | 0.371 | 0.867 | 0.566 | 0.243 | 0.207 | 0.231 | 0.195 | 0.235 | 0.247 | 0.239 | 0.298 | 0.395 | 0.315 |
| HARA | 0.733 | 0.618 | 0.508 | 0.57 | 0.465 | 1.26 | 1.16 | 1.01 | 1.17 | 1.2 | 0.117 | 0.11 | 0.107 | 0.102 | 0.112 | 0.334 | 0.257 | 0.381 | 0.211 | 0.315 |
| HCC-78 | 0.741 | 0.659 | 0.686 | 0.655 | 0.631 | 0.636 | 0.486 | 0.531 | 0.567 | 0.355 | 0.712 | 0.404 | 0.544 | 0.464 | 0.576 | 0.71 | 0.481 | 0.674 | 0.699 | 0.489 |
| NCI-H1666 | 0.714 | 0.718 | 0.734 | 0.835 | 0.8 | 1 | 0.87 | 0.968 | 0.792 | 0.842 | 0.582 | 0.651 | 0.581 | 0.525 | 0.625 | 0.876 | 0.859 | 0.882 | 0.855 | 0.812 |
| NCI-H2347 | 0.642 | 0.545 | 0.644 | 0.682 | 0.623 | 1.18 | 0.935 | 0.907 | 1.43 | 1.09 | 0.523 | 0.478 | 0.503 | 0.619 | 0.62 | 0.701 | 0.606 | 0.864 | 0.774 | 0.754 |
| NCI-H838 | 0.458 | 0.452 | 0.529 | 0.495 | 0.46 | 0.639 | 0.699 | 0.851 | 0.76 | 0.758 | 0.236 | 0.263 | 0.282 | 0.295 | 0.252 | 0.864 | 0.979 | 0.912 | 0.986 | 0.96 |
| NCI-H2023 | 0.223 | 0.234 | 0.217 | 0.237 | 0.215 | 0.994 | 0.963 | 1.24 | 0.995 | 0.886 | 0.324 | 0.334 | 0.384 | 0.261 | 0.313 |  |  |  |  |  |
| 201T | 0.817 | 0.857 | 0.839 | 0.844 | 0.871 | 1.05 | 1.04 |  | 1.1 | 1.09 | 0.917 | 0.967 | 0.975 | 0.946 | 0.873 | 0.615 | 0.814 | 0.598 | 0.606 | 0.562 |
| NCI-H1915 | 0.26 | 0.258 | 0.246 | 0.251 | 0.284 | 0.873 | 0.963 | 0.955 | 0.91 | 0.986 | 0.435 | 0.445 | 0.46 | 0.451 | 0.453 | 0.609 | 0.708 | 0.705 | 0.614 | 0.693 |
| NCI-H2009 | 0.428 | 0.431 | 0.403 | 0.344 | 0.4 | 0.816 | 0.926 | 0.991 | 0.974 | 1.08 | 0.698 | 0.761 | 0.782 | 0.683 | 0.886 |  |  |  |  |  |
| BEN | 0.754 | 0.599 | 0.683 | 0.783 | 0.71 | 0.705 | 0.991 | 0.948 | 1.12 | 0.679 | 0.512 | 0.526 | 0.591 | 0.635 | 0.419 | 0.692 | 0.697 | 0.637 | 0.877 | 0.597 |
| PC-14 | 0.21 | 0.224 | 0.241 | 0.217 | 0.22 | 0.796 | 0.906 | 0.834 | 0.808 | 0.819 | 0.542 | 0.649 | 0.684 | 0.644 | 0.643 | 0.309 | 0.343 | 0.385 | 0.351 | 0.357 |
| SK-MES-1 | 0.358 | 0.404 | 0.381 | 0.414 | 0.348 |  |  |  |  |  | 0.861 | 0.934 | 0.893 | 0.835 | 0.983 |  |  |  |  |  |
| NCI-H727 | 0.824 | 0.685 | 0.884 | 1.03 | 0.926 | 0.937 | 0.733 | 0.92 | 0.845 | 1.27 | 0.573 | 0.658 | 0.588 | 0.691 | 0.761 | 0.639 | 0.536 | 0.597 | 0.637 | 0.555 |
| NCI-H1355 | 0.363 | 0.351 | 0.371 | 0.336 | 0.371 | 1.31 | 1.19 | 1.17 | 1.2 | 1.42 | 0.567 | 0.566 | 0.618 | 0.54 | 0.596 | 0.695 | 0.745 | 0.746 | 0.703 | 0.727 |
| NCI-H1975 | 0.372 | 0.409 | 0.4 | 0.424 | 0.382 | 0.389 | 0.48 | 0.377 | 0.373 | 0.405 | 0.72 | 0.754 | 0.763 | 0.689 | 0.685 | 0.708 | 0.577 | 0.728 | 0.738 | 0.653 |
| LK-2 | 0.267 | 0.333 | 0.295 | 0.384 | 0.268 |  |  |  |  |  | 0.175 | 0.182 | 0.182 | 0.181 | 0.149 | 0.402 | 0.549 | 0.308 | 0.408 | 0.274 |
| NCI-H661 | 0.573 | 0.591 | 0.652 | 0.571 | 0.595 | 0.852 | 0.746 | 0.937 | 0.934 | 0.85 | 0.347 | 0.355 | 0.36 | 0.361 | 0.38 |  |  |  |  |  |
